Reference: patent US9414597B2, “Pesticidal mixtures including spiroheterocyclic pyrrolidine diones” (Syngenta Participations AG, priority 2011, dated 2016)
Where “and” joins values, the source holds several entries; their conditions need not be identical. Identical values can stand only once.

Assays:
[1] = test system: Tetranychus urticae (Two-Spotted Spider Mite); experiment: Tetranychus urticae feeding/contact activity, preventive (bean leaf discs); type: in vivo
Description: (§1) The action to be expected E for a given active ingredient combination obeys the so-called COLBY formula and can be calculated as follows (COLBY, S. R. “Calculating synergistic and antagonistic responses of herbicide combination”. Weeds, Vol. 15, pages 20-22; 1967): • ppm=milligrams of active ingredient(=a.i.) per liter of spray mixture • X=% action by active ingredient A) using p ppm of active ingredient • Y=% action by active ingredient B) using q ppm of active ingredient.
(§2) According to COLBY, the expected (additive) action of active ingredients A)+B) using p+q ppm of active ingredient is
(§3) If the action actually observed (O) is greater than the expected action (E), then the action of the combination is super-additive, i.e. there is a synergistic effect. In mathematical terms the synergism factor SF corresponds to O/E. In the agricultural practice an SF of ≧1.2 indicates significant improvement over the purely complementary addition of activities (expected activity), while an SF of ≦0.9 in the practical application routine signals a loss of activity compared to the expected activity.
Tetranychus urticae (Two-Spotted Spider Mite):
feeding/contact activity, preventive
Bean leaf discs on agar in 24-well microtiter plates are sprayed with the DMSO test solutions. After drying, the leaf discs are infested with mite populations of mixed ages. […] (1 PPM=1 mg l^−1)

[2] = test system: Myzus persicae (Green Peach Aphid); experiment: Myzus persicae feeding/residual contact activity, preventive (sunflower leaf discs); type: in vivo
Description: as §1, §2, §3
Myzus persicae (Green Peach Aphid):
feeding/residual contact activity, preventive
Sunflower leaf discs are placed on agar in a 24-well microtiter plate and sprayed with the DMSO test solutions. After drying, the leaf discs are infested with an aphid population of mixed ages. […] (1 PPM=1 mg l^−1)

[3] = single active, 100 PPM AI, after 5 days
[4] = single active, 200 PPM AI, after 5 days
[5] = single active, 400 PPM AI, after 5 days
[6] = single active, 800 PPM AI, after 5 days
[7] = single active, 3.125 PPM AI, after 5 days
[8] = single active, 6.25 PPM AI, after 5 days
[9] = single active, 12.5 PPM AI, after 5 days
[10] = single active, 50 PPM AI, after 5 days

## CC1=NNC(=O)N(/N=C/c2cccnc2)C1 [Pymetrozine, pymetrozine]
[1]; Pymetrozine alone, 100 PPM AI
  AVERAGE DEAD IN % AFTER 5 DAYS: 0%
[1]; Pymetrozine alone, 200 PPM AI
  AVERAGE DEAD IN % AFTER 5 DAYS: 0%
[1]; [3]
  AVERAGE DEAD IN % AFTER 5 DAYS: 0%
[1]; [4]
  AVERAGE DEAD IN % AFTER 5 DAYS: 0%
[1]; [5]
  AVERAGE DEAD IN % AFTER 5 DAYS: 0%
[1]; [6]
  AVERAGE DEAD IN % AFTER 5 DAYS: 50%
[2]; Pymetrozine alone, 0.4 PPM AI
  AVERAGE DEAD IN % AFTER 5 DAYS: 0%
[2]; Pymetrozine alone, 0.8 PPM AI
  AVERAGE DEAD IN % AFTER 5 DAYS: 25%
[2]; Table 48, Pymetrozine alone, 0.8 PPM AI
  AVERAGE DEAD IN % AFTER 5 DAYS: 25%

## emamectin benzoate
[1]; Emamectin Benzoate alone, 0.05 PPM AI
  AVERAGE DEAD IN % AFTER 5 DAYS: 0%
[1]; Emamectin Benzoate alone, PPM AI r7:0.1 r8:0.05 r9:0.025 r10:0.0125 r11:0.00625
  AVERAGE DEAD IN % AFTER 5 DAYS: 0%
[2]; Emamectin Benzoate alone, PPM AI r7:12.5 r8:25 r9:50 r10:100 r11:200
  AVERAGE DEAD IN % AFTER 5 DAYS: 0%
[2]; Table 46, Emamectin Benzoate alone, 12.5 PPM AI
  AVERAGE DEAD IN % AFTER 5 DAYS: 0%
[2]; Table 46, Emamectin Benzoate alone, 25 PPM AI
  AVERAGE DEAD IN % AFTER 5 DAYS: 0%
[2]; Table 46, Emamectin Benzoate alone, 50 PPM AI
  AVERAGE DEAD IN % AFTER 5 DAYS: 0%
[2]; Table 46, Emamectin Benzoate alone, 100 PPM AI
  AVERAGE DEAD IN % AFTER 5 DAYS: 0%
[2]; Table 46, Emamectin Benzoate alone, 200 PPM AI
  AVERAGE DEAD IN % AFTER 5 DAYS: 0%

## CCOC(=O)OC1=C(c2c(C)cc(Cl)cc2C)C(=O)NC12CCN(OC)CC2 [Compound T1iii.055]
[1]; T1iii.055 alone, 12.5 PPM AI
  AVERAGE DEAD IN % AFTER 5 DAYS: 0%
[1]; single active, 1.56 PPM AI, after 5 days
  AVERAGE DEAD IN % AFTER 5 DAYS: 0%
[1]; [7]
  AVERAGE DEAD IN % AFTER 5 DAYS: 0%
[1]; [8]
  AVERAGE DEAD IN % AFTER 5 DAYS: 0%
[1]; [9]
  AVERAGE DEAD IN % AFTER 5 DAYS: 0%
[2]; T1iii.055 alone, 12.5 PPM AI
  AVERAGE DEAD IN % AFTER 5 DAYS: 0%
[2]; T1iii.055 alone, 25 PPM AI
  AVERAGE DEAD IN % AFTER 5 DAYS: 0%
[2]; T1iii.055 alone, PPM AI r6:200 r7:100 r8:50 r9:25, 25 ppm active ingredient
  AVERAGE DEAD IN % AFTER 5 DAYS: 50%
[2]; T1iii.055 alone, PPM AI r6:200 r7:100 r8:50 r9:25, 200 ppm active ingredient
  AVERAGE DEAD IN % AFTER 5 DAYS: 80%
[2]; T1iii.055 alone, PPM AI r7:200 r8:100 r9:50
  AVERAGE DEAD IN % AFTER 5 DAYS: 0%

## CN1COCN(Cc2cnc(Cl)s2)/C1=N\[N+](=O)[O-] [Thiamethoxam, thiamethoxam]
[1]; Thiamethoxam alone, PPM AI r6:50 r7:100 r8:200 r9:400 r10:100 r11:200 r12:400
  AVERAGE DEAD IN % AFTER 5 DAYS: 0%
[1]; [10]
  AVERAGE DEAD IN % AFTER 5 DAYS: 0%
[1]; [3]
  AVERAGE DEAD IN % AFTER 5 DAYS: 0%
[1]; [4]
  AVERAGE DEAD IN % AFTER 5 DAYS: 0%
[1]; [5]
  AVERAGE DEAD IN % AFTER 5 DAYS: 0%
[1]; [6]
  AVERAGE DEAD IN % AFTER 5 DAYS: 37%
[2]; Thiamethoxam alone, 0.8 PPM AI
  AVERAGE DEAD IN % AFTER 5 DAYS: 0%

## CC(c1ccc(C(F)(F)F)nc1)S(C)(=O)=NC#N (stereo not drawn) [Sulfoxaflor, sulfoxaflor]
[1]; Sulfoxaflor alone, PPM AI r6:50 r7:100 r8:200 r9:400
  AVERAGE DEAD IN % AFTER 5 DAYS: 0%
[1]; [3]
  AVERAGE DEAD IN % AFTER 5 DAYS: 0%
[1]; [4]
  AVERAGE DEAD IN % AFTER 5 DAYS: 0%
[1]; [5]
  AVERAGE DEAD IN % AFTER 5 DAYS: 0%
[1]; [6]
  AVERAGE DEAD IN % AFTER 5 DAYS: 35%
[2]; Sulfoxaflor alone, 0.2 PPM AI
  AVERAGE DEAD IN % AFTER 5 DAYS: 20%

## CC1(C)[C@H](C(=O)O[C@H](C#N)c2cccc(Oc3ccccc3)c2)[C@@H]1/C=C(\Cl)C(F)(F)F (racemic) [Lambda cyhalothrin, lambda-cyhalothrin]
[1]; [7]
  AVERAGE DEAD IN % AFTER 5 DAYS: 15%
[2]; Lambda Cyhalothrin alone, PPM AI r7-r10:50 r11-r14:25
  AVERAGE DEAD IN % AFTER 5 DAYS: 57%

## CNC(=O)c1cc(C#N)cc(C)c1NC(=O)c1cc(Br)nn1-c1ncccc1Cl [Cyantraniliprole, cyantraniliprole]
[2]; Cyantraniliprole alone, 1.5 PPM AI
  AVERAGE DEAD IN % AFTER 5 DAYS: 0%

## CCOC(=O)OC1=C(c2c(C)cc(C)cc2C)C(=O)N(C)C12CCN(OC)CC2 [Compound T1.058]
[1]; T1.058 alone, 50 PPM AI
  AVERAGE DEAD IN % AFTER 5 DAYS: 0%
[1]; T1.058 alone, 100 PPM AI
  AVERAGE DEAD IN % AFTER 5 DAYS: 55%
[1]; T1.058 alone, PPM AI r7:50 r8:25 r9:12.5 r10:6.25 r11:3.125 r12-r15:50
  AVERAGE DEAD IN % AFTER 5 DAYS: 0%

## CNC(=O)c1cc(Cl)cc(C)c1NC(=O)c1cc(Br)nn1-c1ncccc1Cl [Chlorantraniliprole, chlorantraniliprole]
[1]; Chlorantraniliprole alone, 200 PPM AI
  AVERAGE DEAD IN % AFTER 5 DAYS: 25%
[1]; Chlorantraniliprole alone, PPM AI r6:25 r7:50 r8:100
  AVERAGE DEAD IN % AFTER 5 DAYS: 0%
[2]; Chlorantraniliprole alone, 50 PPM AI
  AVERAGE DEAD IN % AFTER 5 DAYS: 0%
[2]; Table 45, Chlorantraniliprole alone, 50 PPM AI
  AVERAGE DEAD IN % AFTER 5 DAYS: 0%

## abamectin
[1]; Abamectin alone, PPM AI r6:0.00625 r7:0.0125 r8:0.025 r9:0.05 r10:0.1
  AVERAGE DEAD IN % AFTER 5 DAYS: 0%

## CNC(=O)c1cc(Cl)cc(C)c1NC(=O)c1cc(Br)nn1-c1ncccc1Cl [Chlorantraniliprol]
[1]; Chlorantraniliprol alone, PPM AI r6:200 r7:400 r8:800
  AVERAGE DEAD IN % AFTER 5 DAYS: 25% and 37%

## Cc1nn(C)c(/C(OC(=O)C(C)(C)C)=C(\C#N)c2ccc(C(C)(C)C)cc2)c1C [Cyenopyrafen, cyenopyrafen]
[1]; Cyenopyrafen alone, 1.5 PPM AI
  AVERAGE DEAD IN % AFTER 5 DAYS: 0%
[1]; single active, 1.5 PPM AI, after 5 days
  AVERAGE DEAD IN % AFTER 5 DAYS: 0%
[1]; single active, 3 PPM AI, after 5 days
  AVERAGE DEAD IN % AFTER 5 DAYS: 40%
[1]; single active, 6 PPM AI, after 5 days
  AVERAGE DEAD IN % AFTER 5 DAYS: 85%
[1]; single active, 12 PPM AI, after 5 days
  AVERAGE DEAD IN % AFTER 5 DAYS: 92%
[2]; Cyenopyrafen alone, 200 PPM AI
  AVERAGE DEAD IN % AFTER 5 DAYS: 0%

## CCOC(=O)OC1=C(c2c(C)cc(Cl)cc2C)C(=O)N(C)C12CCN(OC)CC2 [Compound T1.055]
[1]; T1.055 alone, 100 PPM AI
  AVERAGE DEAD IN % AFTER 5 DAYS: 0%
[1]; T1.055 alone, 200 PPM AI
  AVERAGE DEAD IN % AFTER 5 DAYS: 0%
[1]; T1.055 alone, PPM AI r6:200 r7:100 r8:50
  AVERAGE DEAD IN % AFTER 5 DAYS: 0%
[2]; T1.055 alone, 50 PPM AI
  AVERAGE DEAD IN % AFTER 5 DAYS: 10%
[2]; T1.055 alone, PPM AI r6:100 r7:50 r8:25 r9:12.5
  AVERAGE DEAD IN % AFTER 5 DAYS: 0%
[2]; T1.055 alone, PPM AI r6:100 r7:50 r8:25 r9:12.5 r10:6.25
  AVERAGE DEAD IN % AFTER 5 DAYS: 0%
[2]; Table 45, T1.055 alone, 50 PPM AI
  AVERAGE DEAD IN % AFTER 5 DAYS: 0%
[2]; Table 45, T1.055 alone, 100 PPM AI
  AVERAGE DEAD IN % AFTER 5 DAYS: 25%
[2]; Table 45, T1.055 alone, 200 PPM AI
  AVERAGE DEAD IN % AFTER 5 DAYS: 65%
[2]; Table 46, T1.055 alone, 50 PPM AI
  AVERAGE DEAD IN % AFTER 5 DAYS: 25%
[2]; Table 48, T1.055 alone, 12.5 PPM AI
  AVERAGE DEAD IN % AFTER 5 DAYS: 0%
[2]; Table 48, T1.055 alone, 25 PPM AI
  AVERAGE DEAD IN % AFTER 5 DAYS: 0%
[2]; Table 48, T1.055 alone, 50 PPM AI
  AVERAGE DEAD IN % AFTER 5 DAYS: 65%
[2]; Table 48, T1.055 alone, 100 PPM AI
  AVERAGE DEAD IN % AFTER 5 DAYS: 65%
[2]; Table 48, T1.055 alone, 200 PPM AI
  AVERAGE DEAD IN % AFTER 5 DAYS: 80%

## spinetoram
[1]; [8]
  AVERAGE DEAD IN % AFTER 5 DAYS: 0%
[1]; [9]
  AVERAGE DEAD IN % AFTER 5 DAYS: 25%
[1]; single active, 25 PPM AI, after 5 days
  AVERAGE DEAD IN % AFTER 5 DAYS: 80%
[1]; [10]
  AVERAGE DEAD IN % AFTER 5 DAYS: 95%
[2]; Spinetoram alone, 100 PPM AI
  AVERAGE DEAD IN % AFTER 5 DAYS: 0%
